Results taken from US20100063162A1, “METHOD FOR PREDICTING EFFICACY OF RAR-ALPHA AGONIST” (TAIHO PHARMACEUTICAL CO., LTD., priority 2005, published 2010).

Assays:
RAR-α = RAR-α transcription activity test (pRARE-SEAP reporter) in hepatocellular carcinoma cells; format: cell-based, human; conditions: for RAR response (T/C %): 24 hours, untreated cells = 100
Description: The test for confirming the RAR-α transcription activity was performed as follows.
Hepatocellular carcinoma cells of each type transfected with a reporter plasmid containing an RAR-α binding sequence with the SEAP gene in a downstream region (pRARE-SEAP-TA-vector, Clontech) were treated with an RAR-α agonist, and then the SEAP alkaline phosphatase activity in the culture supernatant was measured. The cultured hepatocellular carcinoma cells were transfected with the RARE reporter plasmid mixed in a transfection reagent prepared by using the culture broth and FuGENE6 solution at a ratio of 100:6 and cultured for 24 hours. The culture broth was replaced with the one containing TAC-101 as an RAR-α agonist, and the cells were cultured for further 24 hours. Then, the culture supernatant was collected, and transcription activity was confirmed by using an alkaline phosphatase activity measurement reagent (SEAP Detection Kit, Clontech).

HCC-C = assay: Orthotopic hepatoma model, tumor weight in the liver, HCC-C; format: in vivo, nude mouse; conditions: oral everyday, 3 weeks, nude mice
Description: (§1) Accordingly, an experiment of therapeutic treatment was performed to examine susceptibility to RAR-α agonists. The cultured liver cancer cells were transplanted in an amount of 1×10^6 cells into the outer left lobes of the livers in nude mice (BALB/cA Jcl-nu, Clea Japan, Inc.), TAC-101 as an RAR-α agonist was orally administered everyday as a 0.5% hydroxypropylmethylcellulose suspension (Shin-Etsu Chemical Co., Ltd.), and then the weights of tumors formed in the livers were measured 3 weeks later to obtain mean inhibition rates. […] Further, it was also observed by two-sided Student's t test that these antitumor effects were statistically significant inhibitory action.

HCC-D = assay: Orthotopic hepatoma model, tumor weight in the liver, HCC-D; format: in vivo, nude mouse; conditions: oral everyday, 3 weeks, nude mice
Description: as §1

HCC-E = assay: Orthotopic hepatoma model, tumor weight in the liver, HCC-E; format: in vivo, nude mouse; conditions: oral everyday, 3 weeks, nude mice
Description: as §1

[1] = tested on: colorectal cancer cell line CAC; assay: Survival after spleen inoculation (liver metastasis model), CAC; format: in vivo, nude mouse; conditions: oral every day for 4 weeks, nude mice
Source text: (§2) Further, correlation between the cofactor balance and survival advantage was examined by using cancer cell lines for which survival were evaluatable. When cells of the colorectal cancer cell line CAC, having an AIB1/SP110b ratio of 0.08 so as to be dominant in SP110b, and the aforementioned HCC-E cells are inoculated in the nude mouse spleen, dissemination easily occurs in the liver, resulting in formation of a metastatic condition in the liver. After 1×10^6 of CAC or HCC-E cells were transplanted, and TAC-101 was orally administered every day for 4 weeks, the survival time of each model animal was observed. In the CAC model, in which SP110b was dominant, prolongation of the survival time was only 26%, whereas in the HCC-E model, in which the class of the p160 family molecule was dominant, nearly […] longer survival time prolongation of 81% was confirmed. Further, this effect in the HCC-E model was also statistically significant (P<0.001).

HCC-E cells = assay: Survival after spleen inoculation (liver metastasis model), HCC-E; format: in vivo, nude mouse; conditions: oral every day for 4 weeks, nude mice
Source text: as §2

human liver cancer = conditions: phase II study; cited from earlier work
liver cancer = conditions: animal model of liver cancer; cited from earlier work

C[Si](C)(C)c1cc(C(=O)Nc2ccc(C(=O)O)cc2)cc([Si](C)(C)C)c1 [TAC-101, 4-[3,5-Bis(trimethylsilyl)benzamido]benzoic acid]
RAR response (T/C %) (RAR-α; HCC-A cells, TAC-101 0.3 μM): 142% | RAR response (T/C %) (RAR-α; HCC-A cells, TAC-101 1 μM): 110% | RAR response (T/C %) (RAR-α; HCC-A cells, TAC-101 3 μM): 143% | RAR response (T/C %) (RAR-α; HCC-B cells, TAC-101 0.3 μM): 180% | RAR response (T/C %) (RAR-α; HCC-B cells, TAC-101 1 μM): 188% | RAR response (T/C %) (RAR-α; HCC-B cells, TAC-101 3 μM): 146% | RAR transcription activity induced by TAC-101 (in words) (RAR-α; HCC-C cells): high | RAR response (T/C %) (RAR-α; HCC-C cells, TAC-101 0.3 μM): 342% | RAR response (T/C %) (RAR-α; HCC-C cells, TAC-101 1 μM): 497% | RAR response (T/C %) (RAR-α; HCC-C cells, TAC-101 3 μM): 285% | RAR transcription activity induced by TAC-101 (in words) (RAR-α; HCC-D cells): weak | RAR response (T/C %) (RAR-α; HCC-D cells, TAC-101 0.3 μM): 161% | RAR response (T/C %) (RAR-α; HCC-D cells, TAC-101 1 μM): 161% | RAR response (T/C %) (RAR-α; HCC-D cells, TAC-101 3 μM): 168% | RAR transcription activity induced by TAC-101 (in words) (RAR-α; HCC-E cells): high | RAR response (T/C %) (RAR-α; HCC-E cells, TAC-101 0.3 μM): 476% | RAR response (T/C %) (RAR-α; HCC-E cells, TAC-101 1 μM): 482% | RAR response (T/C %) (RAR-α; HCC-E cells, TAC-101 3 μM): 259% | Inhibition (%) of tumor growth (tumor weight, mean inhibition rate) (HCC-C): 81% | Inhibition (%) of tumor growth (tumor weight, mean inhibition rate) (HCC-D): −3% | therapeutic effect (in words) (HCC-D): no therapeutic effect was observed | Inhibition (%) of tumor growth (tumor weight, mean inhibition rate) (HCC-E): 67% | Increase of life span (%) [1]: 26% | Increase of life span (%) (HCC-E cells): 81% | prevention of tumor progression (human liver cancer): 43% | antitumor activity (in words) (liver cancer): antitumor activity of TAC-101 was observed
